Experiments:
PPARγ-RXRα heterodimer = molecular target: T1, PPARγ-RXRα heterodimer (Homo sapiens, UniProt P19793+P37231); test: PPARγ-RXRα heterodimer ligand activity (luciferase reporter, PPARγ:RXRα:4ERPP/CHO-K1 cells); type: cell-based; conditions: 48 hrs, concentration for 50% of the maximum fold induction
T1 construct: 1.4 kb DNA fragment containing PPARγ gene was recovered from the gel; 1.4 kb DNA fragment containing RXRα gene was recovered from the gel; expressed in transfected cells
T1 sequence (P37231 1-477 isoform P37231-2): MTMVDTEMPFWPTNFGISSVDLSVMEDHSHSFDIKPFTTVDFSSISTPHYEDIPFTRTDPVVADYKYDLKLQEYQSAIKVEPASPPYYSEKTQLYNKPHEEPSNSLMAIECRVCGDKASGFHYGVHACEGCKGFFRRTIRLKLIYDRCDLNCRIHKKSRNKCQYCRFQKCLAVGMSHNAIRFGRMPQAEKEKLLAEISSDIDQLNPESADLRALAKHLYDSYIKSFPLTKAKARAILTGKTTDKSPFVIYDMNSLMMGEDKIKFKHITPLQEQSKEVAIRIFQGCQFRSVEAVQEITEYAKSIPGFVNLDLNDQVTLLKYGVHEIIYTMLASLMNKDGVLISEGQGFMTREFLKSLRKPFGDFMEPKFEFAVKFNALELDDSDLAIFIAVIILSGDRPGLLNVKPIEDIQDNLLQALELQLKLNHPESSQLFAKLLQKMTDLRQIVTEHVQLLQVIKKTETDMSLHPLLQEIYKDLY
T1 sequence (P19793 1-462): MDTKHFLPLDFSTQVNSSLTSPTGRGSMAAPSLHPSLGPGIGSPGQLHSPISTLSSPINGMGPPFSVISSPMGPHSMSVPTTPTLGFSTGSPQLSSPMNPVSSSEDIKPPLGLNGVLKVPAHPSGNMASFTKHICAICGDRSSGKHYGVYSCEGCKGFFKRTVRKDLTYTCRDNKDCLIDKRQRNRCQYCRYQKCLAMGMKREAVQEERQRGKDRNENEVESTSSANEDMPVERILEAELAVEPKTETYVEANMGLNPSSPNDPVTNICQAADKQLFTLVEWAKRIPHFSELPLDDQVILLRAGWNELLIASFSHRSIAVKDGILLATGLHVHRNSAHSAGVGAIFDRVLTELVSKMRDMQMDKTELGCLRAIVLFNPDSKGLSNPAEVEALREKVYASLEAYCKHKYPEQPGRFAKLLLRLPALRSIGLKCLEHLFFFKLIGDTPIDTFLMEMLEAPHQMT
Method: (PPARγ-RXRα Heterodimer Ligand Activity)
PPARγ: RXRα: 4ERPP/CHO-K1 cells obtained in the following Reference Example 5 were cultured in HAM F12 medium (manufactured by NISSUI SEIYAKU) containing 10% fetal bovine serum [manufactured by Life Technologies, Inc., USA], seeded in a 96-well white plate [manufactured by Corning Coster Corporation, USA] at the density of 2×10^4 cells/well and cultured in a CO2 gas incubator at 37° C. overnight.
After washing the 96-well white plate with PBS (Phosphate-buffered saline), 90 μl of HAM F12 medium containing 0.1% fatty acid-free bovine serum albumin (BSA) and 10 μl of test compound were added, and the cells were cultured in a CO2 gas incubator at 37° C. for 48 hrs. The medium was removed and 40 μl of PicaGene 7.5 (manufactured by Wako Pure Chemical Industries, Ltd.) was added. After stirring, the luciferase activity was determined using Lumistar [manufactured by BMG Labtechnologies GmbH, Germany].
The fold induction was calculated from the luciferase activity of each test compound when the luciferase activity of the test compound non-administration group is taken as 1. The values of the test compound concentration and the fold induction were analyzed using PRISM 2.01 (produced by GraphPad Software Inc. USA) to calculate the EC50 values, the concentration of a test compound for 50% of the maximum fold induction. The results are shown in [Table 2].
Introduction of Human PPARγ- and RXRα-Expression Plasmid and Reporter Plasmid into CHO-K1 Cell as Well as Establishment of Expressed Cell
A CHO-K1 cell cultured in a tissue culture flask (750 ml) [produced by Corning Costar Corporation, USA] containing HAM F12 medium (produced by NISSUI SEIYAKU) supplemented with 10% fetal bovine serum [produced by Life Technologies, Inc., USA] was scraped by treating with 0.5 g/L trypsin-0.2 g/L EDTA (ethylenediamine tetraacetate) [produced by Life Technologies, Inc., USA], and then the cell was washed with PBS (Phosphate-buffered saline)[produced by Life Technologies, Inc., USA], centrifuged (1000 rpm, 5 minutes) and suspended in PBS. Subsequently, DNA was introduced into the cell under the conditions shown below using GENE PULSER (produced by Bio-Rad Laboratories, USA).
Namely, to a cuvette having a 0.4 cm gap were added 8×10^6 cells and 10 μg of plasmid pVgRXR2-hPPARγ obtained in Reference Example 3 and 10 μg of reporter plasmid pGL3-4ERPP-TK neo obtained in Reference Example 4, which was subjected to electroporation at the voltage of 0.25 kV under the capacitance of 960 μF. Subsequently, the cell was transferred into a HAM F12 medium containing 10% fetal bovine serum and cultured for 24 hours, and then the cell was scraped again and centrifuged, and then suspended in HAM F12 medium containing 10% fetal bovine serum supplemented with 500 μg/ml of Geneticin [produced by Life Technologies, Inc., USA] and 250 μg/ml of Zeocin (produced by Invitrogen, USA). The obtained suspension was diluted to the density of 10^4 cells/ml and inoculated in a 96-well plate [produced by Corning Costar Corporation, USA], which was cultured in a CO2 gas incubator at 37° C., whereby obtaining a Geneticin- and Zeocin-resistant transformant.
Subsequently, after the transformant cell line thus obtained was cultured in a 24-well plate [produced by Corning Costar Corporation, USA], a cell line in which the luciferase was expressed and induced, i.e., PPARγ: RXRα: 4ERPP/CHO-K1 cell was selected by the addition of 10 μM pioglitazone hydrochloride.

Row | SMILES | melting point | EC50 (PPARγ-RXRα heterodimer)
1 | O=C(O)c1ccc(-c2cc(-c3ccc(C(F)(F)F)cc3)on2)cc1 [Example 35, 4-[5-(4-trifluoromethylphenyl)-3-isoxazolyl]benzoic acid] | > 300 °C | 3.8 nM
2 | O=C(O)c1cccc(-c2cc(-c3ccccc3)on2)c1 [Example 27, 3-(5-phenyl-3-isoxazolyl)benzoic acid] | 250 to 251 °C | 2.1 nM
3 | O=C(O)c1cccc(-c2ccc(-c3ccc(C(F)(F)F)cc3)o2)c1 [Example 9, 3-[5-(4-trifluoromethylphenyl)-2-furyl]benzoic acid] | 271 to 272 °C | 54 nM
4 | Cn1c(-c2ccc(C(=O)O)cc2)ccc1-c1ccc(C(F)(F)F)cc1 [Example 7, 4-[1-methyl-5-(4-trifluoromethylphenyl)-2-pyrrolyl]benzoic acid] | 260 to 261 °C | 7.6 nM
5 | O=C(O)c1ccc(-c2cc(-c3ccc(Cl)cc3)on2)cc1 [Example 30, 4-[5-(4-chlorophenyl)-3-isoxazolyl]benzoic acid] | > 300 °C | 6 nM
6 | CCOC(=O)c1ccc(-c2ccc(-c3ccc(C(F)(F)F)cc3)o2)cc1 [Example 6, ethyl 4-[5-(4-triflubromethylphenyl)-2-furyl]benzoate] |  | 3.6 nM
7 | O=C(O)c1cccc(-c2cc(-c3ccc(C(F)(F)F)cc3)no2)c1 [Example 33, 3-[3-(4-trifluoromethylphenyl)-5-isoxazolyl]benzoic acid] | 272 to 273 °C | 2.7 nM
8 | O=C(O)c1ccc(-c2cc(-c3ccccc3)on2)cc1 [Example 28, 4-(5-phenyl-3-isoxazolyl)benzoic acid] | 297 to 298 °C | 2.3 nM
9 | COC(=O)c1cccc(-c2cc(-c3ccc(Cl)cc3)on2)c1 [Example 22, methyl 3-[5-(4-chlorophenyl)-3-isoxazolyl)benzoate] | 157 to 158 °C | 
10 | O=Cc1cccc(-c2nnc(-c3ccc(C(F)(F)F)cc3)o2)c1 [Example 80, 3-[5-(4-trifluoromethylphenyl)-1,3,4-oxadiazol-2-yl]benzaldehyde] | 129 to 130 °C | 
11 | COC(=O)c1ccc(-c2nnc(-c3ccc(C(F)(F)F)cc3)o2)c(N)c1 [Example 76, methyl 3-amino-4-[5-(4-trifluoromethylphenyl)-1,3,4-oxadiazol-2-yl]benzoate] | 237 to 238 °C | 
12 | CCOC(=O)c1ccc(-c2nc(-c3ccccc3)ccc2Cl)cc1 [Example 1, ethyl 4-(3-chloro-6-phenyl-2-pyridyl)benzoate] | 81 to 82 °C | 
13 | O=C(O)c1ccc(-c2cc(-c3ccc(C(F)(F)F)cc3)no2)cc1 [Example 26, 4-[3-(4-trifluorophenyl)-5-isoxazolyl]benzoic acid] |  | 23 nM
14 | CCOC(=O)c1ccc(-c2ccc(-c3ccc(C(F)(F)F)cc3)n2C)cc1 [Example 3, ethyl 4-[1-methyl-5-(4-trifluoromethylphenyl)-2-pyrrolyl]benzoate] | 150 to 151 °C | 
15 | CCOC(=O)c1cccc(-c2ccc(-c3ccc(C(F)(F)F)cc3)o2)c1 [Example 5, ethyl 3-[5-(4-trifluoromethylphenyl)-2-furyl]benzoate] | 93 to 94 °C | 

Now from value to compound:

Row | melting point | EC50 (PPARγ-RXRα heterodimer) | SMILES
16 | 284 to 285 °C | 23 nM | O=C(O)c1ccc(-c2ccc(-c3ccc(C(F)(F)F)cc3)s2)cc1 [Example 16, 4-[5-(4-trifluoromethylphenyl)-2-thienyl]benzoic acid]
17 | 276 to 277 °C | 1.2 nM | O=C(O)c1cccc(-c2cc(-c3ccc(C(F)(F)F)cc3)on2)c1 [Example 34, 3-[5-(4-trifluoromethylphenyl)-3-isoxazolyl]benzoic acid]
18 | 203 to 204 °C |  | CCOC(=O)c1ccc(-c2ccc(-c3ccc(C(F)(F)F)cc3)s2)cc1 [Example 14, ethyl 4-[5-(4-trifluoromethylphenyl)-2-thienyl]benzoate]
19 | 286 to 287 °C | 68 nM | O=C(O)c1ccc(-c2noc(-c3ccc(C(F)(F)F)cc3)n2)cc1 [Example 44, 4-[5-(4-trifluoromethylphenyl)-1,2,4-oxadiazol-3-yl]benzoic acid]
20 | 225 to 226 °C |  | COC(=O)c1ccc(-c2cc(-c3ccc(Cl)cc3)no2)cc1 [Example 18, methyl 4-[3-(4-chlorophenyl)-5-isoxazolyl]benzoate]
21 | 239 to 240 °C |  | O=C(O)c1cccc(-c2nnc(-c3ccc(C(F)(F)F)cc3)o2)c1 [Example 51, 3-[5-(4-trifluoromethylphenyl)-1,3,4-oxadiazol-2-yl]benzoic acid]
22 | 263 to 264 °C |  | NC(=O)c1ccc(-c2ccc(-c3ccc(C(F)(F)F)cc3)o2)cc1 [Example 73, 4-[5-(4-trifluoromethylphenyl)-2-furyl]benzamide]
23 | 167 to 168 °C |  | CCOC(=O)c1ccc(-c2ccc(-c3ccc(Cl)cc3)s2)cc1 [Example 13, ethyl 4-[5-(4-chlorophenyl)-2-thienyl]benzoate]
24 | 284 to 286 °C |  | CC(C)(C)c1ccc(-c2nnc(-c3ccc(C(=O)O)cc3)o2)cc1 [Example 50, 4-[5-(4-t-butylphenyl)-1,3,4-oxadiazol-2-yl]benzoic acid]
25 | 298 to 299 °C | 0.59 nM | O=C(O)c1cccc(-c2cc(-c3ccc(Cl)cc3)on2)c1 [Example 29, 3-[5-(4-chlorophenyl)-3-isoxazolyl]benzoic acid]
